“And” between values parts separate entries of the source, which are not always exact repeats. Identical values can stand only once. “Also recorded” adds a separate entry of the source. Like-named read-outs stand apart in the source and are kept apart here.
Experiments:
Neuro-2a cells [1] = assay type: cell-based, mouse
Description: (§1) Neuro-2a cells were transfected with α4-eGFP (500 ng)+β2wt (500 ng)+GaIT-mcherry (250 ng) or pDSred2-ER (100 ng) and cells were incubated for 48 h with appropriate concentrations of nicotine, cytisine or DHβE.
Two color fluorescence signals were separated with a dichroic and optical filters aligned in the emission path where green and red emission was separately aligned to the two halves of an EMCCD. Post-acquisition processing of images used Metamorph to demarcate TGN bodies and to extract number, size and intensity statistics.

α4-eGFPβ2-wt nAChRs [2] = molecular target: T1, α4-eGFPβ2-wt nAChRs (Mus musculus, UniProt O70174+Q9ERK7); assay type: cell-based
T1 construct: expressed in transfected cells; host or cells: mouse Neuro-2a cells
Description: Details of the quantification method have been previously described (Srinivasan et al., 2011). Briefly, PM fluorescence was extracted as follows: Raw TIRF images were converted to background-subtracted images and the ER fluorescence was thresholded and selected. ER fluorescence was then subtracted from the original image to generate images with PM fluorescence signals. These procedures yielded a dataset of several hundred thousand pixel intensities over the 15-50 cells in each experimental group. Fluorescence intensities are simply the sum of pixel values for either the PM or the ER or the ER+PM (using whole TIRF footprint images). Mean PM fluorescence intensity was derived by dividing the total fluorescence intensity for each experimental group by the number of imaged cells and normalized to intensity of untreated cells. Ratios of fluorescence intensities for the whole TIRF footprint (ER+PM) to ER were used to determine the post-Golgi fraction of receptors. For PM integrated density measurements, rather than plotting SEMs (which would be indistinguishably small on the plots), we have used “error bars” to depict 99% confidence intervals based on a two-tailed t-test. Measurements from drug treated cells were normalized to values of untreated cells imaged on the same day. DHβE TIRF experiments were performed on a different day from nicotine and cytisine experiments.

ER exit sites (ERES) = assay type: cell-based, mouse
Description: (§2) Mouse Neuro-2a cells were cultured using standard tissue culture techniques and maintained in 45% DMEM, 45% OptiMEM and 10% FBS. Plasmid concentrations used for transfection were as follows: 500 ng of each nAChR subunit, 75 ng of pCS2-mcherry, 250 ng of Sec24D constructs, 100 ng of pDsRed2-ER, 250 ng of GaIT-eCFP and 500 ng of ATF6-eGFP. 90,000 cells were plated in poly-D-lysine coated 35 mm MatTek glass bottom imaging dishes. The following day, plasmid DNA was mixed with cationic lipids by adding appropriate DNA concentrations to 4 μl of Expressfect transfection reagent in 200 μl DMEM final volume and incubated for 20 min at room temperature to form cationic lipid-DNA complexes. DMEM+DNA-lipid complexes were added to Neuro-2a cells in 1 ml of DMEM+10% FBS and incubated at 37° C. for 4 h. Dishes were rinsed 2× with DMEM, then filled with 3 ml of DMEM+10% FBS and incubated at 37° C. for 48 h. Nicotine, cytisine or DHβE was added at appropriate concentrations during the change of medium following 4 h incubation with Expressfect-plasmid DNA complexes.
Neuro-2a cells were co-transfected with 500 ng each of α4-mcherry and β2-wt nAChR subunits and 250 ng of the ERES marker, Sec24D-eGFP. Each cell was focused to a plane where the maximum ERES were visualized. Sequential images of eGFP and mcherry fluorescence were obtained and linearly unmixed. For quantification, ERES regions of interest (ROIs) were demarcated using intensity-based thresholding and counted for each cell using the particle analysis feature in ImageJ version 1.44 or later. The fluorescence intensity was obtained for each ERES body within the cells and average ERES intensity was plotted. Error bars for ERES measurements are ±standard error of mean (SEM) and p values are based on a 2-tailed t test.

ATF6 = assay type: cell-based, mouse
Description: as §2

α4-eGFPβ2-wt nAChRs [3] = molecular target: T1, α4-eGFPβ2-wt nAChRs; assay type: cell-based; remark: listed apart in the source
Description: Neuro-2a cells were plated on 12 mm glass coverslips within 35 mm plastic bottom cell culture dishes. The following day, cells were transfected with 500 ng α4-eGFP and 500 ng β2-wt nAChR subunits. 24 to 48 hr later, glass coverslips were transferred to dishes on the microscope stage. Green fluorescence was visualized with an upright microscope (BX50WI, Olympus) and UV illumination with appropriate excitation filters. Agonist-induced currents were tested at a holding potential of −65 mV using a focal, relatively rapid drug application system designed to minimize desensitization (Xiao et al., 2009). We applied drugs from the lowest to highest concentration at 3 min intervals to minimize desensitization. Whole-cell patch-clamp recordings were with a MultiClamp 700B amplifier, a 1322 analog-to-digital converter, and pCLAMP 9.2 software (all from Axon Instruments, Molecular Devices). Data were sampled at 10 kHz and filtered at 2 kHz.
The intrapipette solution contained (in mM): 135 potassium gluconate, 5 KCl, 5 EGTA, 0.5 CaCl2, 10 HEPES, 2 Mg-ATP, and 0.1 GTP; the pH was adjusted to 7.2 with Tris base and the osmolarity to 300 mOsm with sucrose. The extracellular solution contained (in mM): 140 NaCl, 5 KCl, 2 CaCl2, 1 MgCl2, 10 HEPES, and 10 glucose; pH was adjusted to 7.3 with Tris base. The Nernst potential for Cl^− in the intrapipette solution is −82.9 mV. The bath was continuously perfused with extracellular solution (ECS) at room temperature (23±1° C.). The patch electrodes had resistances of 5 to 8 MΩ. The junction potential between the patch pipette and the bath solutions was nulled just before forming a gΩ seal. Series resistance was monitored and compensated by 70-80% throughout recordings. The data were ignored if the series resistance (15-30 MΩ) changed by >20% during the recording session.

α4β2 nAChRs = α4β2 nAChRs (Mus musculus, UniProt O70174+Q9ERK7)
Description: For NFRET experiments, Neuro-2a cells were transfected with GaIT-eCFP+α4-mcherry+β2-eGFP subunits. GaIT-eCFP was used to label the TG, TGN (Schaub et al., 2006). Cells transfected with α4-mcherryβ2wt or α4wtβ2-eGFP nAChRs were included in every imaging session to control for pixel saturation and spectral bleedthrough. Live cells were imaged using an Eclipse C1si laser scanning confocal microscope. During image acquisition, cells were focused to a plane where the GaIT-eCFP fluorescence was best visualized. Images with emission spectra for eCFP, eGFP and mcherry were acquired in 5-nm bins between 470 and 620 nm. 439, 488 and 561 nm laser lines were used to excite eCFP, eGFP and mcherry respectively. Images were linearly unmixed using reference spectra for eCFP, eGFP and mcherry with emission maxima at 477, 508 and 608 nm. Reference spectra were acquired from Neuro-2a cells transfected with either GaIT-eCFP or α4-mcherryβ2wt or α4wtβ2-eGFP during the same imaging session. Linear unmixing was used to separate all three emission spectra from each image. Linearly unmixed images were compiled into donor spectral bleed-through stacks, acceptor spectral bleed-through stacks, and sample image stacks.
The PixFRET ImageJ plugin was used to determine the eGFP and mcherry spectral bleedthrough (BT) values and to calculate the net FRET (nF) (equation 1) and normalized FRET (NFRET) at each pixel. With the background and bleed-through corrections set, the nF for each pixel as described by equation 1 was calculated and the data were presented as 32-bit images. nF was divided by the square root of eGFP and mcherry intensities (equation 2) to obtain the normalized FRET (NFRET) value at each pixel. FRET normalization was used to control for large differences in fluorophore expression within subcellular regions and between different cells in a dish.
where, nF=net FRET, IFRET=mcherry sensitized emission with 488 nm excitation, IeGFP=eGFP emission with 488 nm excitation, BTeGFP=spectral bleedthrough of eGFP emission into mcherry emission spectra at 488 nm excitation, Imcherry=mcherry emission with 561 nm excitation and BTmcherry=spectral bleedthrough of mcherry emission into eGFP emission spectra at 561 nm excitation. IFRET, IeGFP and Imcherry were obtained from Neuro-2a cells transfected with GaIT-eCFP+α4-mcherry+β2-eGFP. BTeGFP and BTmcherry values were obtained from Neuro-2a cells transfected with α4-mcherry+β2wt and α4wt+β2-eGFP respectively.
Histograms of NFRET (x-axis) versus number of pixels (y-axis) of each imaged cell were compiled for either the whole cell sections or the TG, TGN ROIs, demarcated by intensity-based thresholding of GaIT-eCFP fluorescence. Frequency histograms obtained in this way (omitting values of zero) were merged for all cells in each experimental group and fitted to two Gaussian components such that a minimum goodness of fit (R^2) value of 0.995 was achieved. Ratios of area under the curve for the two Gaussian components with high and low mean NFRET values were used to determine changes in receptor stoichiometry between experimental groups: NFRET histograms were fitted to Gaussian components, yielding the total pixel area under either the A1 (low mean NFRET fit) or A2 (high mean NFRET fit) components. For quantitative measurements of stoichiometry, we compared the fractional area (FA) for the low NFRET component in each case as given by the following equation:
where, FA=fractional area, A1=area under the curve for low mean NFRET Gaussian component and A2=area under the curve for high mean NFRET Gaussian component.
Due to variability resulting from cell passage number, we imaged untreated control cells on the same day to compare and evaluate the effects of drug exposure on stoichiometry.

Neuro-2a cells [4] = assay type: cell-based, mouse; remark: listed apart in the source
Description: as §1
In ImageJ, background was subtracted, and DSred2-ER fluorescence was thresholded and demarcated for each cell.

α4-GFPβ4-WT nAChRs = molecular target: T2, α4-GFPβ4-WT nAChRs (Mus musculus, UniProt O70174+Q8R493); assay: Whole-cell patch clamp of ACh currents in cortical neurons transfected with α4-GFPβ4-WT; assay type: cell-based
T2 construct: expressed in transfected cells; host or cells: mouse cortical neurons (primary culture)
Description: (§3) To correlate the fluorescence based insertion measurements with electrophysiological measurements, we performed whole-cell patch clamp recording from neurons in the preparation used for our fluorescence experiments, transfected either with α4-GFPβ4-WT or with α4-GFPβ4-R348C nAChRs. The successfully transfected neurons were identified with green fluorescence (FIG. 6. A, D of Richards et al.). Puffs of 300 μM ACh (0.1 s, 20 psi), typically give maximal currents in previous experiments and therefore provide a measure of nAChR number. ACh evoked inward currents in 100% (8/8) and 92% (11/12) of neurons transfected with α4-GFPβ4-WT and α4-GFPβ4-R348C nAChRs, respectively (FIG. 6B, 6E of Richards et al.). The α4-GFPβ4-R348C nAChR currents (120±33 pA, n=12) were only 40% of α4-GFPβ4-WT nAChR currents (310±72 pA, n=8) (p=0.02) (FIG. 6C of Richards et al.). Because variations among the size of neurons could complicate the data, we calculated current density (dividing ACh currents divided by membrane capacitance). The current density of […] (16.3±2.1 pA/pF, n=8) (p=0.001) (FIG. 6F of Richards et al.). Thus in cortical neurons, the R348C mutation produces a fairly consistent ˜2-fold decrease in α4β4-insertion rate and ˜2.5 fold decrease in ACh-induced currents.

α4-GFPβ4-R348C nAChRs = molecular target: T3, α4-GFPβ4-R348C nAChRs (Mus musculus, UniProt O70174+Q8R493, R348C); assay: Whole-cell patch clamp of ACh currents in cortical neurons transfected with α4-GFPβ4-R348C; assay type: cell-based
T3 construct: expressed in transfected cells; host or cells: mouse cortical neurons (primary culture)
Description: as §3

NMDA receptor = details: in vivo; cited from earlier work
[5] = compared with untreated cells, 48 h
[6] = compared to untreated cells, 48 h exposure

α4β2 nAChRs, sequence (O70174 31-629): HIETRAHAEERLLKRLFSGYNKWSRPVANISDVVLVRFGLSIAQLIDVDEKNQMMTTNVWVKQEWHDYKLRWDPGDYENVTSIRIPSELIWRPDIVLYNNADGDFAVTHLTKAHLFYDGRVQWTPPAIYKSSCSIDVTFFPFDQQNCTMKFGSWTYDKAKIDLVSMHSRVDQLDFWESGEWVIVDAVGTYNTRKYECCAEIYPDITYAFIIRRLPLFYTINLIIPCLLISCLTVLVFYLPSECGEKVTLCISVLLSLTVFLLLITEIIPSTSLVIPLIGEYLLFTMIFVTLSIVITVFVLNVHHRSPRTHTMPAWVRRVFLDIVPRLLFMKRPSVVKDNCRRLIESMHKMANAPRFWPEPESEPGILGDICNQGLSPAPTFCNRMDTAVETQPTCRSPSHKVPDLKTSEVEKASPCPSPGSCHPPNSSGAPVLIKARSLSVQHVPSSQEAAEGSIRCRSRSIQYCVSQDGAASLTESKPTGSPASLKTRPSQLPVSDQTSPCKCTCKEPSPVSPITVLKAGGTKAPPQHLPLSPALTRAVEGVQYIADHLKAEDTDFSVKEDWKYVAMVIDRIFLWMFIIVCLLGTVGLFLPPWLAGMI
α4β2 nAChRs, sequence (Q9ERK7 26-501): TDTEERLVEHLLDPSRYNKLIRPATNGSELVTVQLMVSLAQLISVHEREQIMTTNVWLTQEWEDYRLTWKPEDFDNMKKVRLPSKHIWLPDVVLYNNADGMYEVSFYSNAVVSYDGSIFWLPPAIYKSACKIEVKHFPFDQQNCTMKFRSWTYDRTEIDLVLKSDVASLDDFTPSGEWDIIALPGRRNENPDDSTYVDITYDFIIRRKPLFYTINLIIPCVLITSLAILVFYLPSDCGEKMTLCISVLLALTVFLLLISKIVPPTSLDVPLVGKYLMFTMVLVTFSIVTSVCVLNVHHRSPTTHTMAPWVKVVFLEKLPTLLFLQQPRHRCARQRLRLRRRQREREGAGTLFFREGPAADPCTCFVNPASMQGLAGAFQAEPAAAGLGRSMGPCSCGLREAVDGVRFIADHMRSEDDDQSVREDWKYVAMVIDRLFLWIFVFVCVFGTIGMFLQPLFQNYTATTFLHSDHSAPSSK
T3 sequence (O70174 31-629, stated change not applied): as the sequence (O70174 31-629) above
T3 sequence (Q8R493 21-495 R348C): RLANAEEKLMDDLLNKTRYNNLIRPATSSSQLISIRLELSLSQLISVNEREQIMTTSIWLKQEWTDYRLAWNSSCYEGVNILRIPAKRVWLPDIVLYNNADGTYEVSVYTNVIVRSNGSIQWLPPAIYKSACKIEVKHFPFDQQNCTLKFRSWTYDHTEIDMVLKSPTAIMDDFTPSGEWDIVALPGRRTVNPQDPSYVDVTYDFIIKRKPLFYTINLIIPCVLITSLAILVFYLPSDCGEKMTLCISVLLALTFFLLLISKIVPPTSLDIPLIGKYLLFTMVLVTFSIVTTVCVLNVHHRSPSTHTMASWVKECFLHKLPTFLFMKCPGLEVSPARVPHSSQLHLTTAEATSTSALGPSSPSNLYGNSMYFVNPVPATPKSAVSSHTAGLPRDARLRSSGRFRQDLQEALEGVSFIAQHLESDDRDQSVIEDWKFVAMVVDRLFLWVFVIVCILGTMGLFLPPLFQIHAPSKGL
T1 sequence (O70174 31-629): as the sequence (O70174 31-629) above
T1 sequence (Q9ERK7 26-501): as the sequence (Q9ERK7 26-501) above
T2 sequence (O70174 31-629): as the sequence (O70174 31-629) above
T2 sequence (Q8R493 21-495): as the sequence (Q8R493 21-495 R348C) above, with C328R counted along it

CO[C@H]1CC=C2CCN3CCC4=C(CC(=O)OC4)[C@]23C1 [DHβE, dihydro-β-erythroidine]
effect on the average intensity of TGN bodies (in words) (Neuro-2a cells [1]; [5]): significantly reduced
effect on the number of TGN bodies (in words) (Neuro-2a cells [1]; [5]): failed to significantly affect
effect on the footprint/ER ratio (in words) (α4-eGFPβ2-wt nAChRs [2]; [6]): no marked effects
increase in the footprint/ER ratio (α4-eGFPβ2-wt nAChRs [2]; [6]): ~1.5 fold
effect on PM-localized nAChRs (in words) (α4-eGFPβ2-wt nAChRs [2]; compared to untreated controls, 48 h exposure): small, but significant increase; also recorded: no marked effects
increase in ERES fluorescence / formation of ERES (ER exit sites (ERES); compared to untreated control cells, co-expressed nAChRs): ~2 fold
reduction in the ratio of nuclear to whole cell ATF6-eGFP fluorescence (ATF6; 10 or 100 μM, 48 h (both concentrations)): ~23%
nAChR activation (in words) (α4-eGFPβ2-wt nAChRs [3]): activates no receptors
TG+TGN FA (fractional area of low NFRET component) (α4β2 nAChRs; 10 μM DHβE, untreated cells 0.53): 0.37
whole cell FA (fractional area of low NFRET component) (α4β2 nAChRs; 10 μM DHβE, untreated cells 0.54): 0.45
effect on nAChR stoichiometry (α4β2 nAChRs; concentrations ranging from 0.1 to 1 μM): did not affect
effect on peripheral ER area (in words) (Neuro-2a cells [4]; compared to untreated controls, 48 h): did not significantly affect

CC(=O)OCC[N+](C)(C)C [ACh]
ACh evoked inward currents (α4-GFPβ4-WT nAChRs; 300 μM ACh puffs (0.1 s, 20 psi), α4-GFPβ4-WT): 310±72 pA
neurons in which ACh evoked inward currents (α4-GFPβ4-WT nAChRs; 300 μM ACh, α4-GFPβ4-WT (8/8)): 100%
current density (ACh currents divided by membrane capacitance) (α4-GFPβ4-WT nAChRs; 300 μM ACh, α4-GFPβ4-WT as printed): 6.3±1.4 pA/pF
ACh evoked inward currents (α4-GFPβ4-R348C nAChRs; 300 μM ACh puffs (0.1 s, 20 psi), α4-GFPβ4-R348C): 120±33 pA
neurons in which ACh evoked inward currents (α4-GFPβ4-R348C nAChRs; 300 μM ACh, α4-GFPβ4-R348C (11/12)): 92%
current density (ACh currents divided by membrane capacitance) (α4-GFPβ4-R348C nAChRs; 300 μM ACh, α4-GFPβ4-R348C as printed): 16.3±2.1 pA/pF

O=c1cccc2n1C[C@@H]1CNC[C@H]2C1 [Cytisine, cytisine]
Number of TGN bodies (Neuro-2a cells [1]): no effect
effect on the average intensity of TGN bodies (in words) (Neuro-2a cells [1]): significantly reduced
effect on the number of TGN bodies (in words) (Neuro-2a cells [1]): failed to significantly affect
increase in PM-localized nAChRs (α4-eGFPβ2-wt nAChRs [2]): 3 fold and ~3.5 fold
increase in the footprint/ER ratio (α4-eGFPβ2-wt nAChRs [2]): ~1.5 fold and ~2 fold
increase in ERES fluorescence / formation of ERES (ER exit sites (ERES)): ~2 fold
reduction in the ratio of nuclear to whole cell ATF6-eGFP fluorescence (ATF6): ~25%
evoked currents as % of maximum currents induced by 500 μM nicotine (α4-eGFPβ2-wt nAChRs [3]): < 0.1%
fraction of the total receptor population activated (α4-eGFPβ2-wt nAChRs [3]): < 0.1%
TG+TGN FA (fractional area of low NFRET component) (α4β2 nAChRs): 0.42
whole cell FA (fractional area of low NFRET component) (α4β2 nAChRs): 0.30
effect on peripheral ER area (in words) (Neuro-2a cells [4]): reduced
reduction in the average ER area (Neuro-2a cells [4]): ~1.4 fold

CNC1(c2ccccc2Cl)CCCCC1=O (centres unmarked) [ketamine]
time within which antidepressant effects become established (NMDA receptor): 1 to 2 h

From patent publication US20130197023A1, “NEUROPROTECTION BY PHARMACOLOGICAL CHAPERONING OF NICOTINIC ACETYLCHOLINE RECEPTORS” (priority 2012, published 2013)
